Experimental data: patent publication US4912120A, “3,5-substituted 4,5-dihydroisoxazoles as transglutaminase inhibitors” (Syntex (U.S.A.) Inc., priority 1987, dated 1990)

Experiments:
[1] = Toxicity of the Compounds of Formula I; format: in vivo; settings: 10 mg/Kg intraperitoneally daily for 14 days, 5 male and 5 female CDI mice per group
Method: Three groups, each composed of 5 male and 5 female CDI mice, were injected intraperitoneally with 10 mg/Kg of 5-(N-benzyloxycarbonyl-L-phenylalaninamidomethyl)-3-bromo-4,5-dihydroisoxazole or 5-(N-benzyloxycarbonyl-L-para-tyrosinamidomethyl)-3-chloro-4,5-dihydroisoxazole daily for 14 days.

[2] = system: blackhead-like lesions and whitehead-like lesions (spontaneous acne-like condition); assay: Mexican Hairless Dog Assays; format: in vivo, Mexican hairless beagle dog; settings: two dogs
Excerpt: To determine the utility of the compounds of Formula (I) for treating acne in mammals, one can use the procedures described by DeYoung, et al. Another model examined is the Mexican hairless beagle dog, a procedure for which is set forth in Example 10.
Gel vehicle alone was not effective.

[3] = system: psoriatic plaque; assay: Psoriatic plaque chamber test (Example 13); format: in vivo, humans; settings: 1% w/w in propylene glycol/Carbopol 940 gel, 0.05 ml in chamber on psoriatic plaque, five subjects, applied days 1-16, readings to day 23
Method: To determine the utility of the compounds of Formula (I) for treating psoriasis in humans, the procedure of Example 13 can be followed.
5-(N-benzyloxycarbonyl-L-phenylalaninamidomethyl)-3-bromo-4,5-dihydroisoxazole was levigated into a gel vehicle (see Example 14) to afford a concentration of 1% w/w. The gel vehicle contained primarily propylene glycol which was gelled with Carbopol 940.
0.05 ml of the gel containing active ingredient was filled into a 1 mm deep teflon chamber (Durhing chamber) which was then applied to the psoriatic plaque of each of the five subjects. The plaque was then covered with Scanpor® adhesive tape. The gel was applied on days 1, 3, 5, 8, 10, 12 and 16. Each time, fresh gel, chamber, and tape were used. Readings were taken on Days 5, 10, 12, 16 and 23 (one week off therapy). The presence or absence of a normal appearing epidermis was evaluated using a scale of 0 to 2.

[4] = system: transglutaminase; settings: prior-art inhibitors; cited from earlier work
[5] = 2.5% in gel (2.5% Klucel, 10% diisopropyl adipate, 80% ethanol, 5% propylene glycol), once daily, 14 days
[6] = 2.5% in gel (40% dimethylisosorbide, 55% ethanol, 2.5% carbomer 940)

SMILES | toxic effects [1] | clearing of lesions [2, 5] | clearing of lesions [2, 6] | other results
O=C(N[C@@H](Cc1ccccc1)C(=O)NCC1CC(Br)=NO1)OCc1ccccc1 (mixture of isomers) [5-(N-benzyloxycarbonyl-L-phenylalaninamidomethyl)-3-bromo-4,5-dihydroisoxazole] | No toxic effects | clearing of the majority of blackhead-like lesions and many whitehead-like lesions | positive results | activity against psoriasis (presence or absence of normal appearing epidermis, scale of 0 to 2) [3]: shows activity against psoriasis
O=C(N[C@@H](Cc1ccc(O)cc1)C(=O)NCC1CC(Cl)=NO1)OCc1ccccc1 (stereo partly drawn) [5-(N-benzyloxycarbonyl-L-para-tyrosinamidomethyl)-3-chloro-4,5-dihydroisoxazole] | No toxic effects | – | – | –
NCCSSCCN [cystamine] | – | – | – | effective concentration [4]: greater than 10^-3 M; specificity for transglutaminases [4]: lacks specificity for transglutaminases
O=C(N[C@@H](Cc1ccccc1)C(=O)NCC1CC(Cl)=NO1)OCc1ccccc1 (mixture of isomers) [5-(N-benzyloxycarbonyl-L-phenylalaninamidomethyl)-3-chloro-4,5-dihydroisoxazole] | – | good clearing | positive results | –
O=C(N[C@@H](Cc1ccc(O)cc1)C(=O)NCC1CC(Br)=NO1)OCc1ccccc1 (mixture of isomers) [5-(N-benzyloxycarbonyl-L-paratyrosinamidomethyl)-3-bromo-4,5-dihydroisoxazole] | – | – | positive results | –
